Series [1] in a line: The drug is tested on Z-026 corresponding to metagenome with ENA study accession number: PRJEB37062 and ENA sample accession number: ERS12561825 for biotransformation under anaerobic condition. The drug concentrations were measured over 9 timepoints collected between 0 and 24 hours of incubation by liquid-chromatography-coupled mass spectrometry (LC–MS). The note with it: 2 µM.

Series [2] in a line: The drug is tested on Z-025 corresponding to rabbit gut metagenome with ENA study accession number: PRJEB37062 and ENA sample accession number: ERS12561824 for biotransformation under anaerobic condition. The drug concentrations were measured over 9 timepoints collected between 0 and 24 hours of incubation by liquid-chromatography-coupled mass spectrometry (LC–MS). The note with it: 2 µM.

A short description of series [3]: The drug is tested on Z-023 corresponding to metagenome with ENA study accession number: PRJEB37062 and ENA sample accession number: ERS12561822 for biotransformation under anaerobic condition. The drug concentrations were measured over 9 timepoints collected between 0 and 24 hours of incubation by liquid-chromatography-coupled mass spectrometry (LC–MS). The following applies: 2 µM.

Series [4] is described as follows: The drug is tested on Z-012 corresponding to metagenome with ENA study accession number: PRJEB37062 and ENA sample accession number: ERS12561812 for biotransformation under anaerobic condition. The drug concentrations were measured over 9 timepoints collected between 0 and 24 hours of incubation by liquid-chromatography-coupled mass spectrometry (LC–MS). The note with it: 2 µM.

Series [5] in a line: The drug is tested on WLS-220 corresponding to human gut metagenome with ENA study accession number: PRJEB37062 and ENA sample accession number: ERS12561769 for biotransformation under anaerobic condition. The drug concentrations were measured over 9 timepoints collected between 0 and 24 hours of incubation by liquid-chromatography-coupled mass spectrometry (LC–MS). The following applies: 2 µM.

Series [6] is described as follows: The drug is tested on WLS-082 corresponding to human gut metagenome with ENA study accession number: PRJEB37062 and ENA sample accession number: ERS12561751 for biotransformation under anaerobic condition. The drug concentrations were measured over 9 timepoints collected between 0 and 24 hours of incubation by liquid-chromatography-coupled mass spectrometry (LC–MS). The note with it: 2 µM.

A short description of series [7]: The drug is tested on WLS-077 corresponding to human gut metagenome with ENA study accession number: PRJEB37062 and ENA sample accession number: ERS12561750 for biotransformation under anaerobic condition. The drug concentrations were measured over 9 timepoints collected between 0 and 24 hours of incubation by liquid-chromatography-coupled mass spectrometry (LC–MS). The following applies: 2 µM.

Series [8] can be described thus: The drug is tested on WLS-073 corresponding to human gut metagenome with ENA study accession number: PRJEB37062 and ENA sample accession number: ERS12561749 for biotransformation under anaerobic condition. The drug concentrations were measured over 9 timepoints collected between 0 and 24 hours of incubation by liquid-chromatography-coupled mass spectrometry (LC–MS). The following applies: 2 µM.

The conditions of series [9]: human gut metagenome, 24 h, 2 µM.
For series [10] the following is noted: human gut metagenome, 24 h, 2 µM. The source holds these as a separate data set.
For series [11] the following is noted: human gut metagenome, 24 h, 2 µM. This is another data set of the same source.
The conditions of series [12]: human gut metagenome, 24 h, 2 µM. This is another data set of the same source.
The conditions of series [13]: human gut metagenome, 24 h, 2 µM. This is another data set of the same source.
For series [14] the following is noted: human gut metagenome, 24 h, 2 µM. The source holds these as a separate data set.
The conditions of series [15]: human gut metagenome, 24 h, 2 µM. This is another data set of the same source.
For series [16] the following is noted: human gut metagenome, 24 h, 2 µM. The source holds these as a separate data set.
The conditions of series [17]: human gut metagenome, 24 h, 2 µM. The source holds these as a separate data set.
The conditions of series [18]: human gut metagenome, 24 h, 2 µM. The source holds these as a separate data set.
The conditions of series [19]: human gut metagenome, 24 h, 2 µM. The source holds these as a separate data set.
The conditions of series [20]: human gut metagenome, 24 h, 2 µM. This is another data set of the same source.
Also: call rule not given here.

For `CN(C)CCC=C1c2ccccc2COc2ccccc21` [DOXEPIN], the “Bacterial Biotransformation” value was “Compound NOT metabolized” in series [1]; “Compound NOT metabolized” in [2]; “Compound metabolized” in [3]; “Compound NOT metabolized” in series [4]; “Compound metabolized” in series [5]; “Compound NOT metabolized” in series [6]. Besides, the “Bacterial Biotransformation” value is “Compound NOT metabolized” in [7]; “Compound metabolized” in series [8]; “Compound NOT metabolized” in [9]; “Compound metabolized” in series [10]; “Compound NOT metabolized” in series [11]; “Compound NOT metabolized” in [12]. In addition, the “Bacterial Biotransformation” value in series [13] is “Compound NOT metabolized”; in series [14], “Compound metabolized”; in [15], “Compound NOT metabolized”; in series [16], “Compound metabolized”; in [17], “Compound metabolized”; in series [18], “Compound NOT metabolized”. The “Bacterial Biotransformation” value in [19] and in [20] was “Compound metabolized” throughout.

For `C[C@]12CCC(=O)C=C1[C@@H]1C[C@@H]1[C@H]1[C@@H]3[C@@H]4C[C@@H]4[C@@]4(CCC(=O)O4)[C@@]3(C)CC[C@@H]12` [DROSPIRENONE], the “Bacterial Biotransformation” value in series [1] is recorded as “Compound NOT metabolized”; in [2], “Compound NOT metabolized”; in [3], “Compound metabolized”; in [4] it was “Compound NOT metabolized”; in series [5], “Compound metabolized”; in series [6], “Compound metabolized”. Moreover, the “Bacterial Biotransformation” value in [7] is given as “Compound metabolized”; in [8] it was “Compound metabolized”; in [9], “Compound NOT metabolized”; in series [10], “Compound metabolized”; in series [11], “Compound metabolized”; in series [12], “Compound metabolized”. Further, the “Bacterial Biotransformation” value in [13] was “Compound metabolized”; in series [14], “Compound metabolized”; in series [15], “Compound NOT metabolized”; in [16], “Compound metabolized”; in [17], “Compound metabolized”; in series [18], “Compound NOT metabolized”. The “Bacterial Biotransformation” value in series [19] and in [20] was “Compound metabolized” each time.

Take `CC(C)c1c(CN(C)C(C)Cc2ccccc2)n(C)n(-c2ccccc2)c1=O` (stereo not given) [FAMPROFAZONE]: the “Bacterial Biotransformation” value is “Compound NOT metabolized” in [1]; “Compound NOT metabolized” in series [2]; “Compound metabolized” in series [3]; “Compound metabolized” in [4]; “Compound metabolized” in series [5]; “Compound metabolized” in [6]. In addition, the “Bacterial Biotransformation” value in series [7], in series [8], in [9], in [10], in series [11] and in [12] was “Compound metabolized” in each case. Further, the “Bacterial Biotransformation” value in series [13] was “Compound metabolized”; in series [14] it was “Compound metabolized”; in series [15], “Compound NOT metabolized”; in [16], “Compound metabolized”; in series [17] it was “Compound metabolized”; in [18], “Compound metabolized”. The “Bacterial Biotransformation” value in [19] and in series [20] was “Compound metabolized” in each case.

Turning to `N=C(N)NC(=O)Cc1c(Cl)cccc1Cl` [GUANFACINE], the “Bacterial Biotransformation” value in [1], in series [2], in series [3], in series [4], in [5] and in series [6] was “Compound NOT metabolized” each time. Besides, the “Bacterial Biotransformation” value in series [7], in [8], in [9], in [10], in [11] and in series [12] was “Compound NOT metabolized” each time. The “Bacterial Biotransformation” value in series [13], in series [14], in series [15], in series [16], in [17] and in [18] was “Compound NOT metabolized” throughout. The “Bacterial Biotransformation” value in series [19] and in series [20] was “Compound NOT metabolized” each time.

On to `Nc1nc(N)nc(-c2cc(Cl)ccc2Cl)n1.O=C(O)/C=C\C(=O)O` [IRSOGLADINE MALEATE], for which the “Bacterial Biotransformation” value is given as “Compound NOT metabolized” in series [1]; “Compound metabolized” in series [2]; “Compound NOT metabolized” in series [3]; “Compound NOT metabolized” in series [4]; “Compound NOT metabolized” in series [5]; “Compound NOT metabolized” in series [6]. Further, the “Bacterial Biotransformation” value in series [7], in series [8], in [9], in series [10], in series [11] and in series [12] was “Compound NOT metabolized” in each case. In addition, the “Bacterial Biotransformation” value is given as “Compound NOT metabolized” in [13]; “Compound NOT metabolized” in [14]; “Compound NOT metabolized” in [15]; “Compound metabolized” in [16]; “Compound metabolized” in series [17]; “Compound NOT metabolized” in series [18]. Further, the “Bacterial Biotransformation” value in [19] is “Compound metabolized”; in series [20], “Compound NOT metabolized”.

For the origin of these results see ChEMBL document CHEMBL5724914, “Linking interpersonal differences in gut microbiota composition and drug biotransformation activity” (2024).
